Key:
FGFR4 = FGFR4 (Homo sapiens (Human), UniProt P22455); experiment: FGFR Enzymatic Assay (FRET peptide phosphorylation), FGFR4; type: biochemical
Method: (§1) The inhibitor potency of the exemplified compounds was measured in an enzyme assay that measures peptide phosphorylation using FRET measurements to detect product formation. Inhibitors were serially diluted in DMSO and a volume of 0.5 μL was transferred to the wells of a 384-well plate.
The enzymes were purchased from Millipore or Invitrogen.
(§2) GraphPad prism3 was used to analyze the data.

FGFR3 enzyme = experiment: FGFR Enzymatic Assay (FRET peptide phosphorylation), FGFR3; type: biochemical; settings: IC50 ratio showing FGFR3 selectivity; Table 2A, pre-incubated for 4 hours
Method: as §1, §2

[1] = IC50 ratio showing FGFR4 selectivity, Table 2, pre-incubated for 4 hours
[2] = ratio of IC50 data showing FGFR4 selectivity, Table 4, pre-incubated for 5 to 10 minutes

Sequence of FGFR4 (P22455 22-802): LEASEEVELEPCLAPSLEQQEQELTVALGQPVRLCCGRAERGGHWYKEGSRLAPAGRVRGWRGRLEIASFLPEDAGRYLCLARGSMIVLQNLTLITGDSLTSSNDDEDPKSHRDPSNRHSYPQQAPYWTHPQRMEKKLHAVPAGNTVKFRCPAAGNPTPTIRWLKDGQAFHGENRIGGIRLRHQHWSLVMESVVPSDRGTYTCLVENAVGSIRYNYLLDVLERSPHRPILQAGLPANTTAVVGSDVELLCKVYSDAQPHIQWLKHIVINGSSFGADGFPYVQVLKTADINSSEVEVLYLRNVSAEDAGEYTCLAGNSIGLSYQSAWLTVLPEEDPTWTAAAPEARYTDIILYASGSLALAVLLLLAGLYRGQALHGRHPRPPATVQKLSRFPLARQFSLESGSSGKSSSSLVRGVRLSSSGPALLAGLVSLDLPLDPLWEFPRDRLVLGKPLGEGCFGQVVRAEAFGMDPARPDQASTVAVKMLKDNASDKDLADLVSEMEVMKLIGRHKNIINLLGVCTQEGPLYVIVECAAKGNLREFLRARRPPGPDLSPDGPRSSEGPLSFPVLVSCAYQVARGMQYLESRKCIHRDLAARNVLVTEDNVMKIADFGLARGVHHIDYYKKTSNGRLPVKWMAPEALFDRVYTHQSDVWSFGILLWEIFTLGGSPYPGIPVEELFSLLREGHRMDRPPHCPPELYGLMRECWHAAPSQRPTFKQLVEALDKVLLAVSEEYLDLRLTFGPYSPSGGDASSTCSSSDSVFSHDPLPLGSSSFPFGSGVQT

SMILES | FGFR1/FGFR4 (FGFR4; [1]) | FGFR2/FGFR4 (FGFR4; [1]) | FGFR3/FGFR4 (FGFR4; [1]) | FGFR1/FGFR4 (FGFR4; [2]) | FGFR2/FGFR4 (FGFR4; [2]) | FGFR3/FGFR4 (FGFR4; [2]) | FGFR1/FGFR3 (FGFR3 enzyme) | FGFR4/FGFR3 (FGFR3 enzyme)
COc1cc(OC)c(F)c(N2Cc3cnc(-c4cncc(NS(C)(=O)=O)c4)cc3C3(CC3)C2=O)c1F [Example 15, N-(5-(2′-(2,6-difluoro-3,5-dimethoxyphenyl)-3′-oxo-2′,3′-dihydro-1′H-spiro[cyclopropane-1,4′-[2,7]naphthyridine]-6′-yl)pyridin-3-yl)methanesulfonamide] | >50 | >25 | >10 | >50 | >25 | >10 | >3 | –
COc1cc(OC)c(F)c(N2Cc3cnc(-c4nn(CC5CCOCC5)cc4C#N)cc3C3(CC3)C2=O)c1F [Example 173, 3-(2′-(2,6-difluoro-3,5-dimethoxyphenyl)-3′-oxo-2′,3′-dihydro-1′H-spiro[cyclopropane-1,4′-[2,7]naphthyridine]-6′-yl)-1-((tetrahydro-2H-pyran-4-yl)methyl)-1H-pyrazole-4-carbonitrile] | >100 | >100 | >50 | – | – | – | – | –
COc1cc(OC)c(F)c(N2Cc3cnc(-c4cccnc4)cc3C3(CC3)C2=O)c1F [Example 9, 2′-(2,6-difluoro-3,5-dimethoxyphenyl)-6′-(pyridin-3-yl)-1′H-spiro[cyclopropane-1,4′-[2,7]naphthyridin]-3′(2′H)-one] | >10 | >1 | >1 | >5 | >1 | >1 | >3 | –
COc1cc(OC)c(F)c(N2Cc3cnc(-c4[nH]ncc4C#N)cc3C3(CC3)C2=O)c1F [Example 171, 5-(2′-(2,6-difluoro-3,5-dimethoxyphenyl)-3′-oxo-2′,3′-dihydro-1′H-spiro[cyclopropane-1,4′-[2,7]naphthyridine]-6′-yl)-1H-pyrazole-4-carbonitrile] | >10 | >10 | >10 | – | – | – | – | –
COc1cc(OC)c(F)c(N2Cc3cnc(-c4cc(N)c(F)cc4C)cc3C3(CC3)C2=O)c1F [Example 2, 6′-(5-amino-4-fluoro-2-methylphenyl)-2′-(2,6-difluoro-3,5-dimethoxyphenyl)-1′H-spiro[cyclopropane-1,4′-[2,7]naphthyridin]-3′(2′H)-one] | >10 | >10 | >10 | >10 | >10 | >10 | – | –
COc1cc(OC)c(F)c(N2Cc3cnc(-c4nn(CC#N)cc4C#N)cc3C3(CC3)C2=O)c1F [Example 174, 1-(cyanomethyl)-3-(2′-(2,6-difluoro-3,5-dimethoxyphenyl)-3′-oxo-2′,3′-dihydro-1′H-spiro[cyclopropane-1,4′-[2,7]naphthyridine]-6′-yl)-1H-pyrazole-4-carbonitrile] | >100 | >10 | >25 | – | – | – | – | –
COc1cc(OC)c(F)c(N2Cc3cnc(-c4cc(N)ccc4C#N)cc3C3(CC3)C2=O)c1F [Example 3, 4-amino-2-(2′-(2,6-difluoro-3,5-dimethoxyphenyl)-3′-oxo-2′,3′-dihydro-1′H-spiro[cyclopropane-1,4′-[2,7]naphthyridine]-6′-yl)benzonitrile] | >25 | >25 | >10 | >25 | >25 | >25 | – | –
COc1cc(OC)c(F)c(N2Cc3cnc(-c4nn(C)cc4C#N)cc3C3(CC3)C2=O)c1F [Example 172, 3-(2′-(2,6-difluoro-3,5-dimethoxyphenyl)-3′-oxo-2′,3′-dihydro-1′H-spiro[cyclopropane-1,4′-[2,7]naphthyridine]-6′-yl)-1-methyl-1H-pyrazole-4-carbonitrile] | >50 | >25 | >10 | – | – | – | – | –
COc1cc(OC)c(F)c(N2Cc3cnc(-c4cc(N)ccc4C)cc3C3(CC3)C2=O)c1F [Example 1, 6′-(5-amino-2-methylphenyl)-2′-(2,6-difluoro-3,5-dimethoxyphenyl)-1^1H-spiro[cyclopropane-1,4′-[2,7]naphthyridin]-3′(2′H)-one] | >25 | >25 | >25 | >25 | >25 | >50 | – | –
CNC(=O)c1ccc(CN2C(=O)N(c3c(F)c(OC)cc(OC)c3F)Cc3cnc(-c4cn(C)nc4C)cc32)cc1 [Example 62, 4-((3-(2,6-difluoro-3,5-dimethoxyphenyl)-7-(1,3-dimethyl-1H-pyrazol-4-yl)-2-oxo-3,4-dihydropyrido[4,3-d]pyrimidin-1(2H)-yl)methyl)-N-methylbenzamide] | – | – | – | – | – | – | >10 | >5
COc1cc(OC)c(F)c(N2Cc3cnc(-c4cn(C)nc4C)cc3N(Cc3ccncc3)C2=O)c1F [Example 69, 3-(2,6-difluoro-3,5-dimethoxyphenyl)-7-(1,3-dimethyl-1H-pyrazol-4-yl)-1-(pyridin-4-ylmethyl)-3,4-dihydropyrido[4,3-d]pyrimidin-2(1H)-one] | – | – | – | – | – | – | >5 | >5
COc1cc(OC)c(F)c(N2Cc3cnc(-c4ccc(C5(C#N)CCC5)nc4)cc3N(Cc3nnc(C)o3)C2=O)c1F [Example 187, 1-(5-{3-(2,6-difluoro-3,5-dimethoxyphenyl)-1-[(5-methyl-1,3,4-oxadiazol-2-yl)methyl]-2-oxo-1,2,3,4-tetrahydropyrido[4,3-d]pyrimidin-7-yl}pyridin-2-yl)cyclobutanecarbonitrile] | – | – | – | – | – | – | >10 | >10
CCN1C(=O)N(c2c(F)c(OC)cc(OC)c2F)Cc2cnc(-c3cn(CC)nc3C)cc21 [Example 168, 3-(2,6-difluoro-3,5-dimethoxyphenyl)-1-ethyl-7-(1-ethyl-3-methyl-1H-pyrazol-4-yl)-3,4-dihydropyrido[4,3-d]pyrimidin-2(1H)-one] | – | – | – | – | – | – | >5 | >3
COc1cc(OC)c(F)c(N2Cc3cnc(-c4cn(C)nc4C)cc3N(c3ccccc3F)C2=O)c1F [Example 110, 3-(2,6-difluoro-3,5-dimethoxyphenyl)-7-(1,3-dimethyl-1H-pyrazol-4-yl)-1-(2-fluorophenyl)-3,4-dihydropyrido[4,3-d]pyrimidin-2(1H)-one] | – | – | – | – | – | – | >3 | >5
COc1cc(OC)c(F)c(N2Cc3cnc(-c4cn(C)nc4C)cc3N(c3ccc(C(=O)N(C)C)cc3)C2=O)c1F [Example 113, 4-(3-(2,6-difluoro-3,5-dimethoxyphenyl)-7-(1,3-dimethyl-1H-pyrazol-4-yl)-2-oxo-3,4-dihydropyrido[4,3-d]pyrimidin-1(2H)-yl)-N,N-dimethylbenzamide] | – | – | – | – | – | – | >3 | >5
CCCNC(=O)c1ccc(-c2cc3c(cn2)CN(c2c(F)c(OC)cc(OC)c2F)C(=O)N3CC)cn1 [Example 179, 5-(3-(2,6-difluoro-3,5-dimethoxyphenyl)-1-ethyl-2-oxo-1,2,3,4-tetrahydropyrido[4,3-d]pyrimidin-7-yl)-N-propylpicolinamide] | – | – | – | – | – | – | >5 | >10
COc1cc(OC)c(F)c(N2Cc3cnc(-c4cn(C5CCS(=O)(=O)C5)nc4C)cc3C3(CC3)C2=O)c1F (stereo not shown) [Example 54, 2′-(2,6-difluoro-3,5-dimethoxyphenyl)-6′-[1-(1,1-dioxidotetrahydro-3-thienyl)-3-methyl-1H-pyrazol-4-yl]-1′,2′-dihydro-3′H-spiro[cyclopropane-1,4′-[2,7]naphthyridin]-3′-one] | – | – | – | – | – | – | >5 | >1
COc1cc(OC)c(F)c(N2Cc3cnc(-c4cn(C)nc4C)cc3N(Cc3cc(C)no3)C2=O)c1F [Example 35, 3-(2,6-difluoro-3,5-dimethoxyphenyl)-7-(1,3-dimethyl-1H-pyrazol-4-yl)-1-((3-methylisoxazol-5-yl)methyl)-3,4-dihydropyrido[4,3-d]pyrimidin-2(1H)-one] | – | – | – | – | – | – | >5 | >10
COc1cc(OC)c(F)c(N2Cc3cnc(-c4cn(C)nc4C)cc3N(c3ccc(C#N)cc3)C2=O)c1F [Example 44, 4-(3-(2,6-difluoro-3,5-dimethoxyphenyl)-7-(1,3-dimethyl-1H-pyrazol-4-yl)-2-oxo-3,4-dihydropyrido[4,3-d]pyrimidin-1 (2H)-yl)benzonitrile] | – | – | – | – | – | – | >10 | >10
COc1cc(OC)c(F)c(N2Cc3cnc(-c4ccc(C5(C#N)CCC5)nc4)cc3N(c3cnn(C)c3)C2=O)c1F [Example 188, 1-{5-[3-(2,6-difluoro-3,5-dimethoxyphenyl)-1-(1-methyl-1H-pyrazol-4-yl)-2-oxo-1,2,3,4-tetrahydropyrido[4,3-d]pyrimidin-7-yl]pyridin-2-yl}cyclobutanecarbonitrile] | – | – | – | – | – | – | >5 | >5
COc1cc(OC)c(F)c(N2Cc3cnc(-c4cn(C)nc4C)cc3N(Cc3ccc(C#N)nc3)C2=O)c1F [Example 74, 5-((3-(2,6-difluoro-3,5-dimethoxyphenyl)-7-(1,3-dimethyl-1H-pyrazol-4-yl)-2-oxo-3,4-dihydropyrido[4,3-d]pyrimidin-1(2H)-yl)methyl)picolinonitrile] | – | – | – | – | – | – | >5 | >5
COc1cc(OC)c(F)c(N2Cc3cnc(-c4cn(CCC#N)nc4C)cc3C3(CC3)C2=O)c1F [Example 156, 3-(4-(2′-(2,6-difluoro-3,5-dimethoxyphenyl)-3′-oxo-2′,3′-dihydro-1′H-spiro[cyclopropane-1,4′-[2,7]naphthyridine]-6′-yl)-3-methyl-1H-pyrazol-1-yl)propanenitrile] | – | – | – | – | – | – | >5 | >1

— patent publication US11173162B2, “Bicyclic heterocycles as FGFR4 inhibitors” (Incyte Corporation, priority 2015, dated 2021)
